According to ChEMBL document CHEMBL3608235, “Pyrroloaryls and pyrroloheteroaryls: Inhibitors of the HIV fusion/attachment, reverse transcriptase and integrase” (Bioorg Med Chem, 2015):
Each block holds one compound with its values, some of them ahead of it.

What was measured:
[1] = system: Human immunodeficiency virus 1; experiment: Antiviral activity against HIV1; assay type: functional, organism-based
[2] = system: Human immunodeficiency virus; experiment: Antiviral activity against HIV by XTT assay; assay type: functional, organism-based; details: Human immunodeficiency virus 1
[3] = target: Human immunodeficiency virus type 1 reverse transcriptase (Human immunodeficiency virus 1, UniProt Q72547); experiment: Inhibition of HIV1 reverse transcriptase
[4] = Cytotoxicity against mock-infected human MT4 cells assessed as reduction in cell viability; assay type: cell-based
[5] = system: Human immunodeficiency virus 1; experiment: Antiviral activity against HIV1 infected in human MT4 cells assessed as reduction in virus-induced cytopathogenicity; assay type: functional, organism-based; details: Human immunodeficiency virus 1, MT4
[6] = system: Human immunodeficiency virus; experiment: Antiviral activity against HIV expressing raltegravir-resistant integrase mutants; assay type: functional, organism-based; details: Human immunodeficiency virus 1
[7] = Selectivity index, ratio of CC50 for mock-infected human MT4 cells to EC50 for HIV1 infected in human MT4 cells; assay type: toxicity, cell-based; details: MT4 cells (mock-infected and HIV1-infected), read-out: Ratio CC50/EC50
[8] = system: Human immunodeficiency virus 2; experiment: Antiviral activity against HIV2 ROD; assay type: functional, organism-based; details: Human immunodeficiency virus 2, ISOLATE ROD
[9] = system: Human immunodeficiency virus 1; experiment: Antiviral activity against HIV1 3B; assay type: functional, organism-based; details: Human immunodeficiency virus 1, 3B
[10] = Cytotoxicity against human C8166 cells; assay type: cell-based; details: human, C8166 cells
[11] = system: Human immunodeficiency virus 1; experiment: Antiviral activity against HIV1 infected in human C8166 cells assessed as inhibition of virus replication; assay type: functional, organism-based; details: Human immunodeficiency virus 1, C8166
PBL = experiment: Cytotoxicity against human PBL cells incubated for 4 days by MTT assay; assay type: cell-based; details: 96 h
[12] = system: Human immunodeficiency virus 1; experiment: Antiviral activity against HIV1 3B infected in human primary lymphocytes assessed as reduction in p24 production incubated for 4 days by ELISA method; assay type: functional, organism-based; details: Human immunodeficiency virus 1, 3B, 96 h
[13] = system: Human immunodeficiency virus; experiment: Antiviral activity against HIV infected in human MT4 cells assessed as reduction in virus-induced cytopathogenicity; assay type: functional, organism-based; details: Human immunodeficiency virus 1, MT4
[14] = system: Human immunodeficiency virus 1; experiment: Antiviral activity against HIV1 3B infected in human MT2 cells assessed as reduction in virus-induced cell death; assay type: functional; details: Human immunodeficiency virus 1, 3B

Compound: C[C@@H]1CN(C(=O)c2ccccc2)CCN1C(=O)C(=O)c1c[nH]c2cnccc12
EC50 [1]: 0.0216 µM

Compound: CCCCC(=O)NC1=NN(C)c2ncnc3c2c1cn3[C@@H]1O[C@H](CO)[C@@H](O)[C@H]1O
IC50 [2]: 0.8 µM

Compound: COC(=O)CCC1=C2C(=O)N(Cc3ccc(F)c(Cl)c3)C(=O)C2=C(O)C(=O)C1C(C)C (stereo not drawn)
IC50 [6]: 7.1 µM

Compound: CC(=O)OCC1=C2C(=O)N(Cc3ccc(F)c(Cl)c3)C(=O)C2=C(O)C(=O)C1
IC50 [6]: 12.3 µM

Compound: O=C(NCc1ccc(F)cc1)c1ncc(O)c2c1C(=O)N(CCc1ccc(F)cc1)C2=O
CC50 [10]: 30.8 µM | EC50 [11]: 5.7 µM

Compound: CN1N=C(N)c2cn([C@H]3CC[C@@H](CO)O3)c3ncnc1c23
EC50 [1]: 21 µM

Compound: CCCCCCCCCCCC(=O)NC1=NN(C)c2ncnc3c2c1cn3[C@@H]1O[C@H](CO)[C@@H](O)[C@H]1O
IC50 [2]: > 100 µM

Compound: CCCCCCC(=O)NC1=NN(C)c2ncnc3c2c1cn3[C@@H]1O[C@H](CO)[C@@H](O)[C@H]1O
IC50 [2]: 0.035 µM

Compound: CCCCCC(=O)NC1=NN(C)c2ncnc3c2c1cn3[C@@H]1O[C@H](CO)[C@@H](O)[C@H]1O
IC50 [2]: 0.35 µM

Compound: CCOC(=O)c1ncc(O)c2c1C(=O)N(CCc1ccc(C)cc1)C2=O
CC50 [10]: 15.5 µM | EC50 [11]: 2.34 µM

Compound: C[C@@H]1CN(C(=O)c2ccccc2)CCN1C(=O)C(=O)c1c[nH]c2ncccc12
EC50 [1]: 0.0017 µM

Compound: CC1=C2C(=O)N(Cc3ccc(F)c(Cl)c3)C(=O)C2=C(O)C(=O)C1C (stereo not drawn)
IC50 [6]: 6.7 µM

Compound: CCOC(=O)c1ncc(O)c2c1C(=O)N(CCc1ccc(F)cc1)C2=O
CC50 [10]: 13.2 µM | EC50 [11]: 1.65 µM

Compound: CC1=C2C(=O)N(Cc3ccc(F)c(Cl)c3)C(=O)C2=C(O)C(=O)C1c1ccccc1 (stereo not drawn)
IC50 [6]: 6.4 µM

Compound: CCCCCCCC(=O)NC1=NN(C)c2ncnc3c2c1cn3[C@@H]1O[C@H](CO)[C@@H](O)[C@H]1O
IC50 [2]: > 100 µM

Compound: CC(=O)OCC1=C2C(=O)N(Cc3ccc(F)c(Cl)c3)C(=O)C2=C(O)C(=O)C1C(C)C (stereo not drawn)
IC50 [6]: 15.6 µM

Compound: CCOC(=O)CCC(NC(=O)c1ccc(Nc2nc3cc(C(F)(F)F)ccc3n3cccc23)cc1)C(=O)OCC (stereo not drawn)
EC50 [13]: > 39 µg/mL

Compound: COc1ccc(Nc2nc3cc(C(F)(F)F)ccc3n3cccc23)cc1OC
EC50 [13]: > 27 µg/mL

Compound: O=C(C[C@H]1C(=O)Nc2ccccc2C2CCCN21)OCc1ccccc1 (stereo partly drawn)
EC50 (PBL): 28.5 µM | EC50 [12]: 0.86 µM

Compound: O=C1CC(CO)=C2C(=O)N(Cc3ccc(F)c(Cl)c3)C(=O)C2=C1O
IC50 [6]: 6.5 µM

Compound: CCCC(=O)NC1=NN(C)c2ncnc3c2c1cn3[C@@H]1O[C@H](CO)[C@@H](O)[C@H]1O
IC50 [2]: 0.5 µM

Compound: CCCCCCCCC(=O)NC1=NN(C)c2ncnc3c2c1cn3[C@@H]1O[C@H](CO)[C@@H](O)[C@H]1O
IC50 [2]: > 100 µM

Compound: CN1C(=O)[C@H](Cc2ccc(O)cc2)n2cccc2-c2ccccc21
IC90 [14]: > 0.29 µg/mL

Compound: CCCCCCCCCC(=O)NC1=NN(C)c2ncnc3c2c1cn3[C@@H]1O[C@H](CO)[C@@H](O)[C@H]1O
IC50 [2]: > 100 µM

Compound: O=C(O)c1ccc(Nc2nc3cc(C(F)(F)F)ccc3n3cccc23)cc1
EC50 [13]: > 15 µg/mL

Compound: COc1ccc(Nc2nc3ccccc3n3cccc23)cc1OC
EC50 [13]: > 31 µg/mL

Compound: Cc1cccc(Sc2c(C(C)C)c(CO)cn2Cc2ccncc2)c1
selectivity ratio [7]: 3250 | CC50 [4]: 50 µM | EC50 [5]: 0.008 µM

Compound: CCOC(=O)c1ncc(O)c2c1C(=O)N(CCc1ccc(OC)c(OC)c1)C2=O
CC50 [10]: 33.5 µM | EC50 [11]: 9.15 µM

Compound: CC(C)c1c(CO)cn(Cc2ccncc2)c1Sc1cccc(F)c1
selectivity ratio [7]: 1420 | CC50 [4]: 71 µM | EC50 [5]: 0.05 µM

Compound: O=Cc1ccc2n1[C@@H](Cc1ccccc1)C(=O)Nc1ccccc1-2
IC90 [14]: > 0.29 µg/mL

Second part, led by results:

IC50 [3]: 4 µM | EC50 [5]: 3.5 µM
Compound: O=C1Nc2ccccc2S(=O)(=O)n2cccc21
CC50 [4]: > 100 µM

IC50 [3]: 0.7 µM | EC50 [5]: 1 µM
Compound: O=C1Nc2ccc(Cl)cc2S(=O)(=O)n2cccc21
selectivity ratio [7]: > 300 | CC50 [4]: > 300 µM

EC50 [8]: > 150 µM | EC50 [9]: 8.9 µM
Compound: O=C1N(Cc2ccccc2Cl)c2cccn2S(=O)(=O)N1Cc1cccc(Cl)c1

EC50 [12]: 16 µM
Compound: Cn1ccc2c1C(=O)Nc1ccccc1S2
EC50 (PBL): > 434 µM

IC50 [3]: 4 µM | EC50 [5]: 3.5 µM
Compound: C=CCN1C(=O)c2cccn2S(=O)(=O)c2ccccc21
CC50 [4]: > 100 µM

EC50 [8]: > 150 µM | EC50 [9]: 5.1 µM
Compound: N#Cc1ccccc1CN1C(=O)N(Cc2ccccc2)S(=O)(=O)n2cccc21

EC50 [11]: 9.37 µM
Compound: CCOC(=O)c1ncc(O)c2c1C(=O)N(CCc1c[nH]c3ccccc13)C2=O
CC50 [10]: 26.7 µM

EC50 [8]: > 150 µM | EC50 [9]: 7.2 µM
Compound: O=C1N(Cc2ccccc2Cl)c2cccn2S(=O)(=O)N1Cc1cccc(F)c1

IC50 [3]: 2.9 µM | EC50 [5]: 3.7 µM
Compound: C=CCN1C(=O)c2cccn2S(=O)(=O)c2cc(Cl)ccc21
selectivity ratio [7]: > 81 | CC50 [4]: > 300 µM

IC50 [3]: 3.1 µM | EC50 [5]: 4.1 µM
Compound: C/C=C/CN1C(=O)c2cccn2S(=O)(=O)c2cc(Cl)ccc21
selectivity ratio [7]: > 73 | CC50 [4]: > 300 µM

EC50 [12]: 14 µM
Compound: CN1C(=O)c2ccn(C)c2S(=O)(=O)c2ccccc21
EC50 (PBL): > 362 µM

EC50 [13]: > 16 µg/mL
Compound: COc1ccc(OCc2nc3ccccc3n3cccc23)cc1

IC50 [3]: 4 µM | EC50 [5]: 3.5 µM
Compound: CCN1C(=O)c2cccn2S(=O)(=O)c2ccccc21
CC50 [4]: > 100 µM

IC50 [3]: 1.35 µM | EC50 [5]: 45.2 µM
Compound: CCC1(CC=C(C)C)Sc2ccccc2-n2cccc2C1=O (stereo not drawn)
selectivity ratio [7]: 9 | CC50 [4]: 0.3 µM

EC50 [8]: > 150 µM | EC50 [9]: 11 µM
Compound: O=C1N(Cc2cccc(Cl)c2)c2cccn2S(=O)(=O)N1Cc1cccc(F)c1

EC50 [8]: > 150 µM | EC50 [9]: 6.5 µM
Compound: N#Cc1cccc(CN2C(=O)N(Cc3ccccc3)S(=O)(=O)n3cccc32)c1

IC50 [3]: 19 µM
Compound: O=C(NNc1nc2ccccc2n2cccc12)c1cnccn1

EC50 [13]: > 8 µg/mL
Compound: O=C(O)c1ccc(OCc2nc3ccccc3n3cccc23)cc1

IC50 [3]: 0.5 µM | EC50 [5]: 0.5 µM
Compound: CN1C(=O)c2cccn2S(=O)(=O)c2cc(Cl)ccc21
selectivity ratio [7]: > 600 | CC50 [4]: > 300 µM

EC50 [11]: 3.1 µM
Compound: CCOC(=O)c1ncc(O)c2c1C(=O)N(CC(c1ccccc1)c1ccccc1)C2=O
CC50 [10]: 25.2 µM

IC50 [3]: 4 µM | EC50 [5]: 3.5 µM
Compound: CN1C(=O)c2cccn2S(=O)(=O)c2ccccc21
CC50 [4]: > 100 µM

IC50 [3]: 0.71 µM | EC50 [5]: 6.4 µM
Compound: C=CCC1(c2ccccc2)Sc2ccccc2-n2cccc2C1=O (stereo not drawn)
selectivity ratio [7]: 9 | CC50 [4]: 25 µM

EC50 [8]: > 150 µM | EC50 [9]: 5.6 µM
Compound: N#Cc1ccccc1CN1C(=O)N(Cc2cccc(F)c2)S(=O)(=O)n2cccc21

EC50 [1]: 0.0016 µM
Compound: C[C@@H]1CN(C(=O)c2ccccc2)CCN1C(=O)C(=O)c1c[nH]c2cccnc12

IC50 [3]: 4 µM | EC50 [5]: 3.5 µM
Compound: CC(C)N1C(=O)c2cccn2S(=O)(=O)c2ccccc21
CC50 [4]: > 100 µM

IC50 [3]: 2.7 µM | EC50 [5]: 2.4 µM
Compound: CCN1C(=O)c2cccn2S(=O)(=O)c2cc(Cl)ccc21
selectivity ratio [7]: 118 | CC50 [4]: > 300 µM

IC50 [3]: 0.47 µM | EC50 [5]: 4.9 µM
Compound: CCC1(c2ccccc2)Sc2ccccc2-n2cccc2C1=O (stereo not drawn)
selectivity ratio [7]: 9 | CC50 [4]: 0.25 µM

IC50 [3]: 0.85 µM | EC50 [5]: 37.3 µM
Compound: CCC1(c2ccc3ccccc3c2)Sc2ccccc2-n2cccc2C1=O (stereo not drawn)
selectivity ratio [7]: 9 | CC50 [4]: 0.5 µM

EC50 [8]: > 150 µM | EC50 [9]: 18 µM
Compound: O=C1N(Cc2ccccc2Cl)c2cccn2S(=O)(=O)N1Cc1cccc(Br)c1

IC50 [3]: 0.35 µM | EC50 [5]: 6.9 µM
Compound: CC1(c2ccccc2)Sc2ccccc2-n2cccc2C1=O (stereo not drawn)
selectivity ratio [7]: 9 | CC50 [4]: 10 µM

IC50 [3]: 4 µM | EC50 [5]: 3.5 µM
Compound: CCN1C(=O)c2cccn2S(=O)(=O)c2ccc(Cl)cc21
CC50 [4]: > 100 µM
